Assay [1] has as its target T1, KV7.1/KCNE1 channel (Homo sapiens, UniProt P51787).
T1 construct: expressed in transfected cells; host or cells: HEK293, transient expression
The assay can be described thus: Rb+ efflux high-throughput screening (ICR 8000). It counts as cell-based. The note with it: up to 100 μM, transient expression in HEK293 cells. The method, then: Furthermore, the KV7.1 channel, which co-expresses with the auxiliary subunit KCNE1 to form slowly activated delayed rectifier potassium currents (IKs) during cardiac repolarization, was evaluated using the Rb^+ efflux high-throughput screening technique to determine the opening activity of QO-83 on the KCNQ1/E1 channel.
(§1) [picture] Figure S3: The activation effect of QO-83 on the KV7 channels was preliminarily verified by high-throughput screening. (A)High-throughput screening for KV7.2/7.3 stable expressed in CHO cells (n = 6). (B)High-throughput screening for KV7.4 stable expressed in HEK293 cells (n = 6). (C) High-throughput screening for KCNQ1/E1 transient expression in HEK293 cells (n = 6).
The high-throughput screening experiment utilizing the ICR 8000 rubidium ion elution method aimed to assess the sensitivity of QO-83 towards KV7.2/3 and KV7.1 channels. Cells in the logarithmic growth phase were seeded into 96-well plates at a density of 2×10^5 cells per well. Following overnight incubation, the medium was replaced with 200 μL of RBCL-loaded buffer and incubated under controlled conditions (5% CO2, 37°C) for 3 hours. The loading buffer composition consisted of 5.4 mM RbCl, 5 mM Glucose, 25 mM HEPES, 150 mM NaCl, 1 mM MgCl2, 0.8 mM NaH2PO4•2H2O, and 2 mM CaCl2. […]

For assay [2], the system named is pilocarpine-induced seizures. The assay is described as follows: Pilocarpine-induced status epilepticus model with EEG. It counts as in vivo, Sprague–Dawley (SD) rats. The note with it: for effect on EEG power spectral density: pilocarpine-treated rats. The text has this: For animal experiments, we used adult male Sprague–Dawley (SD) rats weighing between 240 and 260 g. Isoflurane anesthesia was used for all operations. Rats were secured in a stereotaxic frame, and the anterior fontanelle was marked 3 mm posteriorly. Additionally, marks were made approximately 3 mm lateral to the midline on both sides to indicate the insertion points for the positive and negative electrodes. A ground electrode was placed subcutaneously in the occipital lobe to eliminate recording noise. Postoperatively, each animal was housed separately in a single cage and provided food and water ad libitum. After a 3‐day adaptation period, electroencephalograms (EEG) were recorded.
The experimental procedure commenced with an intraperitoneal injection of lithium chloride (127 mg/kg). After 24 h, subcutaneous scopolamine methyl nitrate (1 mg/kg) was administered. […] Twenty minutes later, status epilepticus (SE) was induced by administering pilocarpine (100 mg/kg, i.p.). SE was terminated 2 h later by administering 10% chloral hydrate.
The Pilo group, 2 mg/kg XE991 group, and 2 mg/kg XE991 + 1 mg/kg QO‐83 group received an intraperitoneal injection of lithium chloride (127 mg/kg) 24 h prior to testing. Following this, scopolamine methyl nitrate (1 mg/kg) was administered […], and after 10 min, each group was treated with 25% beta‐cyclodextrin, 2 mg/kg XE991, or 2 mg/kg XE991, respectively. After 15 min, 25% beta‐cyclodextrin, 25% beta‐cyclodextrin, or 1 mg/kg QO‐83 was administered. Finally, 25 min later, pilocarpine (100 mg/kg, i.p.) was administered to induce seizures.
Seizure severity was assessed using a standardized scale ranging from 1 to 5, adapted from previous research criteria. Stage 1 encompasses mouth and facial movements, including wet dog shakes. Stage 2 involves head nodding. Stage 3 is characterized by unilateral forelimb clonus. […] Finally, stage 5 manifests as clonus of all limbs accompanied by falling.

Assay [3] deals with PTZ kindling seizures. The assay is described as follows: Chronic PTZ-induced epileptic kindling model. The class given is in vivo, Wistar Institute rats.
Description: In the preparation of the chronic PTZ‐induced epileptic kindling model, male Wistar Institute rats weighing between 180 and 250 g were utilized. […] During the modeling period, all groups received daily intraperitoneal injections of 0.2 mL/100 g between 9:00 and 15:00.
Seizure severity was assessed using the Racine scale.
Assay [4] has as its system electroshock seizures. The assay can be described thus: Maximal electroshock seizure (MES) model. It counts as in vivo, Kunming mice. The note with it: 15 mg/kg i.p.
Assay [5] has as its system PNC-induced seizures. The assay is described as follows: Penicillin (PNC) induced acute epilepsy model. It counts as in vivo, SD rats. The note with it: 40 mg/kg i.g. The protocol:
In the penicillin (PNC) induced acute epilepsy model study, male SD rats weighing between 180 g and 250 g were utilized. […] Each group consisted of 10 rats.
PNC was administered intraperitoneally at a dose of 8 million U/kg to induce epileptic seizures. […] In the Compound QO‐83 treatment groups, rats were orally administered the designated doses of Compound QO‐83, followed by an intraperitoneal injection of PNC after a 20‐min interval. The PNC model group received an oral gavage of a 0.5% CMC‐Na solution, followed by an intraperitoneal injection of PNC after a 20‐min interval. […] Seizure behaviors, including convulsions, limb jerks, and loss of postural control, were observed and analyzed in all groups.

For assay [6], the target named is T2, KV7.4 (Homo sapiens, UniProt P56696).
T2 construct: expressed in transfected cells
The assay is described as follows: Rb+ efflux high-throughput screening (ICR 8000). It counts as cell-based.
Source text: (§2) The activation effect of QO-83 on the KV7 channel was preliminarily verified using high-throughput screening methodologies.
as §1
(§3) The high-throughput screening experiment utilizing the ICR 8000 rubidium ion elution method aimed to assess the sensitivity of QO-83 towards KV7.2/3 and KV7.1 channels. Cells in the logarithmic growth phase were seeded into 96-well plates at a density of 2×10^5 cells per well. Following overnight incubation, the medium was replaced with 200 μL of RBCL-loaded buffer and incubated under controlled conditions (5% CO2, 37°C) for 3 hours. The loading buffer composition consisted of 5.4 mM RbCl, 5 mM Glucose, 25 mM HEPES, 150 mM NaCl, 1 mM MgCl2, 0.8 mM NaH2PO4•2H2O, and 2 mM CaCl2.
(§4) Subsequently, the solution was aspirated, and the cells were washed thrice with Washing Buffer (5.4 mM KCl, 25 mM HEPES, 150 mM NaCl, 1 mM MgCl2, 0.8 mM NaH2PO4•2H2O, 2 mM CaCl2). […] Each concentration was distributed across triplicate wells, with corresponding concentration solvent control wells included. […]

The target of assay [7] is T3, KV7.2/7.3 (Homo sapiens, UniProt O43525+O43526).
T3 construct: expressed in transfected cells
The assay can be described thus: Rb+ efflux high-throughput screening (ICR 8000). The class given is cell-based.
Source text: as §2, §1, §3, §4

One may read the EC50 as the midpoint of the concentration-response curve. With `CCOC(=O)Nc1ccc(NCc2ccc(F)cc2)cc1N` [RTG, retigabine], in assay [1], the “opening activity on KV7.1/KCNE1 channel” value is given as “did not affect”. Further, in assay [2] (1 mg/kg i.p.), the “effect on epileptic behavior” value is on record as “could not rescue the epileptic behavior” and the “effect on EEG power spectral density” value was “did not exhibit effects equivalent”. Besides, in assay [2] (10 mg/kg i.p.), the “effect on latency of seizures” value is “significantly prolonged the latency of seizures”, the “effect on seizure grade” value is given as “reduced the seizure grade” and the “effect on EEG power spectral density” value is listed as “significantly inhibited the increase in EEG power spectral density”. Further, in assay [3] (10 mg/kg), the “effect on latency period” value is listed as “significantly prolong the latency period”. For the same molecule, in assay [3] (10 mg/kg i.p. daily, 30th day, model 4.68 ± 0.62), the seizure grade was 1.75 ± 0.31. Besides, the electroshock protection rate in assay [4] is given as 90%. In addition, in assay [5], the “effect on seizure latency” value is listed as “significantly increased seizure latency” and the seizure grade is listed as 2.66 ± 0.33. Moreover, the half-maximal effective concentration (EC50) in assay [6] was 1380 ± 310 nM. Also, a half-maximal effect in assay [7] (EC50) was put at 180 ± 70 nM.

The values above are taken from paper PMC11931445, “A Novel Compound QO‐83 Alleviates Acute and Chronic Epileptic Seizures in Rodents by Modulating KV7 Channel Activity” (CNS Neuroscience & Therapeutics, 2025).
